Reference: US8394355B2, “Use of UTP for the diagnosis of stenoses and other conditions of restricted blood flow” (P2 science Aps, priority 2009, dated 2013)
Several values for one entry are separate records, joined by “and”; a condition that tells them apart may be missing. Identical values can stand only once. Entries after “also recorded” stand apart in the source; their conditions may differ.

How the values were obtained:
[1] = system: coronary arteries in humans with coronary artery disease; assay: FFR during continuous intracoronary infusion via microcatheter (Example 3); assay type: in vivo; details: for % of patients with FFR ≦ 0.8 / adverse effects during IC continuous infusion: microcatheter study; for adverse effects during IC continuous infusion: 10 patients; for optimal dose for achieving maximal coronary hyperemia and thereby the lowest FFR: FIG. 5
Excerpt: As described previously, inducing stable maximal coronary hyperemia is essential for measurement of fractional flow reserve (FFR). This second experiment in a similar patient group evaluated the differential efficacy of intracoronary (IC) continuous adenosine infusion vs. IC continuous uridine triphosphate (UTP) infusion via a microcatheter for inducing steady state maximal coronary hyperemia. The present study was designed to evaluate the safety and effectiveness of the equimolar concentrations of UTP vs. adenosine infusion for use in the FFR method. Time to achievement of steady-state, impact of maximal hyperemia (lowest FFR) for the different compounds and side effects were recorded in 10 patients with intermediate coronary lesions. FFR was measured consecutively by IC continuous adenosine or UTP infusion using a microcatheter to bypass the proximal pressure transducer. The IC microcatheter (Progreat Microcatheter System, Terumo, Japan) used was positioned at the coronary ostium, and FFR was then measured by increasing IC continuous adenosine or UTP infusion rates in equimolar concentrations from 10 to 400 μg/min via the microcatheter.
After femoral catheterization, coronary angiography was performed with the standard femoral approach. Heparin was administered according to standard procedures.
Intracoronary nitroglycerin (0.2-0.3 mg) was administered before the control angiograms were made in the microcatheter study. Heart rate and arterial pressure were continuously monitored throughout the procedure. After a guiding catheter (5F catheter, Cordis Corp.) without side holes was positioned at the coronary ostium, coronary angiograms were obtained from multiple projections. Quantitative coronary analysis was performed by using an independent analyzer blinded to the results of FFR using a computer-assisted, automated computerized edge-detection algorithm (Siemens Medical System). The external diameter of the contrast-filled catheter was used as a calibration standard. Minimal luminal diameter, vessel diameter of the reference segment, and the percent diameter stenosis at end diastole were measured from the worst-view trace. After coronary angiography, a 0.014-in. pressure wire (Combowire, Volcano Corporation, US) was advanced distally to the stenosis through a 6F guiding catheter. In the microcatheter study, an IC bolus injection of nitroglycerin (0.2-0.3 mg) was given before advancing the pressure wire through the stenosis in order to avoid any mechanically-induced coronary vasoconstriction. The pressure wire was externally calibrated and then advanced to the distal tip of the catheter. It was verified whether equal pressure was recorded at both the catheter and the pressure wire. The pressure wire was advanced through the coronary catheter, introduced into the coronary artery, and positioned distal to the stenosis.
Distal coronary pressure (Pd) and proximal coronary pressure (Pa) were measured at baseline and at maximal hyperemia (adenosine vs. UTP) simultaneously. Fractional flow reserve was calculated by dividing mean Pd by mean Pa during maximal hyperemia. The time to optimal vasodilatation (time needed to reach >90% of the minimal value of Pd/Pa after administration of the adenosine or UTP) was computed in order to assess whether procedure time was prolonged. The hyperemic stimuli were given as follows: an IC continuous infusion of adenosine or UTP in incremental doses of 10, 20, 40, 80, 160, 240, […] and 400 μg/min, in both the left and right coronary artery depending upon lesion anatomy. The dosages were increased stepwise by IC continuous infusion with the microcatheter where the stepwise dose increase was recorded continuously without breaks. After each stepwise increase, FFR and CFR were recorded automatically. The next hyperemic stimulus UTP vs adenosine was given when Pa, Pd, and heart rate returned to their baseline values.

leg blood flow = details: cited from earlier work; for relative vasoactive potency (rank order): only for blood flows around 3.5 Lmin^−1
[2] = system: coronary arteries in humans with coronary artery disease; assay: FFR during continuous intracoronary infusion via guiding catheter (Example 2); assay type: in vivo; parameters: key: FFR = Pd/Pa (distal/proximal coronary pressure ratio); details: Example 5 summary; Ttest 0.0034 adenosine vs UTP

Nc1ncnc2c1ncn2[C@@H]1O[C@H](CO)[C@@H](O)[C@H]1O [adenosine]
FFR ([1]; individual patients (row = patient no.), IC continuous infusion 10 μg/min, microcatheter, listed as ADO): 0.81 and 0.94 and 0.86 and 0.99
FFR ([1]; individual patients, 20 μg/min, listed as ADO): 0.75 and 0.94 and 0.95
FFR ([1]; individual patients, 40 μg/min, listed as ADO): 0.73 and 0.94 (2×) and 0.82
FFR ([1]; individual patients, 80 μg/min, listed as ADO): 0.83 and 0.95 and 0.76 and 0.71 and 0.94 and 0.82 and 0.88
FFR ([1]; individual patients, 160 μg/min, listed as ADO): 0.80 and 0.95 (2×) and 0.60 and 0.68 and 0.85 and 0.96 and 0.75
FFR ([1]; individual patients, 240 μg/min, listed as ADO): 0.81 and 0.94 and 0.60 and 0.87 and 0.91 and 0.71
FFR ([1]; individual patients, 400 μg/min, listed as ADO): 0.56 and 1.01 and 0.89
FFR Mean ([1]; mean of patients, 10 μg/min): 0.90
FFR Mean ([1]; mean, 20 μg/min): 0.88
FFR Mean ([1]; mean, 40 μg/min): 0.86
FFR Mean ([1]; mean, 80 μg/min): 0.84
FFR Mean ([1]; mean, 160 μg/min): 0.82
FFR Mean ([1]; mean, 240 μg/min): 0.81
FFR Mean ([1]; mean, 320 μg/min): 0.82
FFR Mean ([1]; mean, 400 μg/min): 0.82
% of patients with FFR ≦ 0.8 ([1]; 80 μg/min (n = 8)): 37 % of patients
% of patients with FFR ≦ 0.8 ([1]; 160 μg/min (n = 6)): 33 % of patients
% of patients with FFR ≦ 0.8 ([1]; 320 μg/min (n = 9)): 44 % of patients
% of patients with FFR ≦ 0.8 ([1]; 400 μg/min (n = 3)): 33 % of patients
adverse effects during IC continuous infusion [1]: nearly all felt angina in the adenosine group; also recorded: some patients had a transient second degree A-V block; also recorded: nearly all patients experienced side effects
optimal dose for achieving maximal coronary hyperemia and thereby the lowest FFR ([1]; microcatheter): ~240 µg/min
relative vasoactive potency (rank order) (leg blood flow): 5.8
FFR Mean [2]: 0.77

O=c1ccn([C@@H]2O[C@H](COP(=O)(O)OP(=O)(O)OP(=O)(O)O)C(O)[C@@H]2O)c(=O)[nH]1 (some centres unmarked) [UTP, Uridine 5-triphosphate]
FFR in comparison to IC adenosine infusion ([1]; P<0.05): significantly lower
steady-stable hyperemia lasted longer compared to adenosine infusion ([1]; in vivo): ~20 s
FFR ([1]; individual patients (row = patient no.), IC continuous infusion 10 μg/min, microcatheter): 0.72 and 0.95 and 0.84
FFR ([1]; individual patients, 20 μg/min): 0.71 and 0.95
FFR ([1]; individual patients, 40 μg/min): 0.72 and 0.95 and 0.83
FFR ([1]; individual patients, 80 μg/min): 0.73 and 0.79 and 0.88 and 0.56 and 0.71 and 0.97 and 0.83
FFR ([1]; individual patients, 160 μg/min): 0.90 and 0.73 and 0.79 and 0.86 and 0.56 and 0.71 and 0.92 and 0.83
FFR ([1]; individual patients, 240 μg/min): 0.89 (2×) and 0.73 and 0.79 and 0.87 and 0.55
FFR ([1]; individual patients, 400 μg/min): 0.90 and 0.92 and 0.56
FFR Mean ([1]; mean of patients, 10 μg/min): 0.84
FFR Mean ([1]; mean, 20 μg/min): 0.83
FFR Mean ([1]; mean, 40 μg/min): 0.83
FFR Mean ([1]; mean, 80 μg/min): 0.78
FFR Mean ([1]; mean, 160 μg/min): 0.79
FFR Mean ([1]; mean, 240 μg/min): 0.79
FFR Mean ([1]; mean, 320 μg/min): 0.79
FFR Mean ([1]; mean, 400 μg/min): 0.79
% of patients with FFR ≦ 0.8 ([1]; 80 μg/min (n = 8)): 62 % of patients
% of patients with FFR ≦ 0.8 ([1]; 160 μg/min (n = 6)): 50 % of patients
% of patients with FFR ≦ 0.8 ([1]; 320 μg/min (n = 9)): 44 % of patients
% of patients with FFR ≦ 0.8 ([1]; 400 μg/min (n = 3)): 33 % of patients
adverse effects during IC continuous infusion [1]: None of the patients had chest pain in the UTP group; also recorded: All patients tolerated UTP without side effects
optimal dose for achieving maximal coronary hyperemia and thereby the lowest FFR ([1]; microcatheter): approximately 80 μg/min
induction time to optimal coronary hyperemia ([1]; versus IC continuous adenosine infusion): shorter
blood flow increase, % of maximum in the leg during hard exercise (leg blood flow; local infusion): 60%
relative vasoactive potency (rank order) (leg blood flow): 100
FFR Mean [2]: 0.72
